PubChem BioAssay (NCI)
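Where inhibition never reached the appropriate level, the endpoint shown equals the highest concentration tested. Otherwise, values were interpolated linearly from a five-concentration, 48-hour dose response in 96-well plates. TGI: total growth inhibition.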

How the values were obtained:
Assay in all cases: growth of human tumour cells (NCI), 48 h
SK-MEL-28 melanoma = test system: SK-MEL-28 melanoma
RPMI-8226 leukemia = test system: RPMI-8226 leukemia
NCI-H460 lung = test system: NCI-H460 lung
LOX IMVI melanoma = test system: LOX IMVI melanoma
SK-OV-3 ovarian = test system: SK-OV-3 ovarian
UO-31 renal = test system: UO-31 renal
SF-295 CNS = test system: SF-295 CNS
PC-3 prostate = test system: PC-3 prostate
SW-620 colon = test system: SW-620 colon
OVCAR-3 ovarian = test system: OVCAR-3 ovarian

Row | Structure (SMILES) | TGI (SK-MEL-28 melanoma) | TGI (RPMI-8226 leukemia) | TGI (NCI-H460 lung) | TGI (LOX IMVI melanoma) | TGI (SK-OV-3 ovarian) | TGI (UO-31 renal) | TGI (SF-295 CNS) | TGI (PC-3 prostate) | TGI (SW-620 colon) | TGI (OVCAR-3 ovarian)
1 | CCOC(=O)c1cc2nc3ccccc3c(=O)n2c2ccccc12 | > 10 µM | > 10 µM | > 10 µM | > 10 µM | > 10 µM | > 10 µM | > 10 µM | > 10 µM | > 10 µM | > 10 µM
2 | O=c1[nH]c(Nc2nc3ccccc3[nH]2)nc(O)c1-c1ccccc1 | > 100 µM |  | > 100 µM | > 100 µM | > 100 µM | > 100 µM | > 100 µM | > 100 µM | > 100 µM | > 100 µM
3 | Cc1nc(N)c(N2CCN([N+](=O)[O-])CC2)c(=O)[nH]1 | > 100 µM | > 100 µM | > 100 µM | > 100 µM |  | > 100 µM | > 100 µM | > 100 µM | > 100 µM | > 100 µM
4 | CSc1nsc(-c2ccccc2)[s+]1 | > 100 µM | > 100 µM | > 100 µM |  | > 100 µM | > 100 µM |  |  | > 100 µM | > 100 µM
5 | COc1ccc(NC(=O)CC(=O)N2N=C(N3c4ccccc4Sc4ccccc43)CC2c2ccccc2)cc1 (centres undefined) | > 100 µM | > 100 µM | > 100 µM |  | > 100 µM | > 100 µM | > 100 µM | > 100 µM | > 100 µM | > 100 µM
6 | Cc1ccc(-c2[nH]c(=O)n(C3OC(CO)C(O)C(O)C3O)c(=O)c2C#N)cc1 (centres undefined) | > 100 µM | > 100 µM | > 100 µM |  | > 100 µM | > 100 µM | > 100 µM | > 100 µM | > 100 µM | > 100 µM
7 | Cc1ccc(C(=C2Sc3ccccc3S2)C(=C2Sc3ccccc3S2)c2ccc(C)s2)s1 | > 100 µM | > 100 µM |  |  | > 100 µM | > 100 µM | > 100 µM | > 100 µM | > 100 µM | > 100 µM
8 | CCCSCC(P(=O)(O)O)P(=O)(O)O | > 100 µM | > 100 µM | > 100 µM | > 100 µM | > 100 µM | > 100 µM | > 100 µM |  | > 100 µM | > 86.9 µM
9 | COc1ccc(-c2nc(SCC(=O)N/N=C/c3ccc(N(C)C)cc3)[nH]c2-c2ccc(OC)cc2)cc1 | > 100 µM |  | > 100 µM | > 100 µM | > 100 µM | > 100 µM | > 100 µM | > 100 µM | > 100 µM | > 100 µM
10 | CCOP(=O)(OCC)C(c1ccc(F)cc1)N(C(=O)NC(F)(F)F)c1ccc(OC)cc1 (centres undefined) | > 100 µM | > 100 µM | > 100 µM | > 100 µM |  | > 100 µM | > 100 µM |  | > 100 µM | > 100 µM
11 | COc1ccc(C2=N/C(=C\c3ccccc3)C(=O)O2)cc1 | > 100 µM | > 100 µM | > 100 µM |  | > 100 µM |  | > 100 µM | > 100 µM | > 100 µM | > 100 µM
12 | O=C(CC(C(=O)c1ccsc1)c1ccc2c(c1)OCO2)c1ccccc1 (centres undefined) | > 100 µM | > 100 µM | > 100 µM | > 100 µM | > 100 µM | > 100 µM | > 100 µM |  | > 100 µM | > 100 µM
